Key:
D(1A) dopamine receptor [1] = molecular target: T1, D(1A) dopamine receptor (Homo sapiens, UniProt P21728); assay: Agonist activity at C-terminal RLuc8-fused D1R (unknown origin) transfected in human HEK293T cells co-expressing N-terminal Venus-tagged beta-arrestin2 assessed as increase in beta-arrestin2 recruitment measured after 5 mins in presence of coelenterazine H by BRET assay; type: cell-based
D(1A) dopamine receptor [2] = molecular target: T1, D(1A) dopamine receptor; assay: Agonist activity at D1R (unknown origin) transfected in human HEK293T cells assessed as increase in cAMP accumulation incubated for 2 hrs by cAMP Glo-sensor assay; type: functional, cell-based
D(2) dopamine receptor [3] = molecular target: T2, D(2) dopamine receptor (Homo sapiens, UniProt P14416); assay: Agonist activity at D2 long receptor (unknown origin) transfected in human HEK293T cells assessed as increase in cAMP accumulation incubated for 2 hrs by cAMP Glo-sensor assay; type: functional, cell-based
T2 sequence (P14416 whole entry): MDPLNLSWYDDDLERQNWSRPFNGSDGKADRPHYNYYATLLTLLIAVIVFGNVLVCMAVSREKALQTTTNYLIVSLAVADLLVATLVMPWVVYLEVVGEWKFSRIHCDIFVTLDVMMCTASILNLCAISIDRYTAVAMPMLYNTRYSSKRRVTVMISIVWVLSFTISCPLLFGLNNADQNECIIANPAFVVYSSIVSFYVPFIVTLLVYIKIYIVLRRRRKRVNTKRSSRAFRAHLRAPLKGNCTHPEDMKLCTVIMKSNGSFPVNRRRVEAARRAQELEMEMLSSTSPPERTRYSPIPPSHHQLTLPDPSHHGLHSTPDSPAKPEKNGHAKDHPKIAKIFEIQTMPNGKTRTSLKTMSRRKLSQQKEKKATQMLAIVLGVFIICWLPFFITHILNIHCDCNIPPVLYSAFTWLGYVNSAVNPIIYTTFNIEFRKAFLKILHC

D(2) dopamine receptor [4] = molecular target: T2, D(2) dopamine receptor
D(1A) dopamine receptor [5] = molecular target: T1, D(1A) dopamine receptor
D(2) dopamine receptor [6] = molecular target: T2, D(2) dopamine receptor; remark: listed apart in the source

T1 sequence (P21728 whole entry, the tested form may be a part): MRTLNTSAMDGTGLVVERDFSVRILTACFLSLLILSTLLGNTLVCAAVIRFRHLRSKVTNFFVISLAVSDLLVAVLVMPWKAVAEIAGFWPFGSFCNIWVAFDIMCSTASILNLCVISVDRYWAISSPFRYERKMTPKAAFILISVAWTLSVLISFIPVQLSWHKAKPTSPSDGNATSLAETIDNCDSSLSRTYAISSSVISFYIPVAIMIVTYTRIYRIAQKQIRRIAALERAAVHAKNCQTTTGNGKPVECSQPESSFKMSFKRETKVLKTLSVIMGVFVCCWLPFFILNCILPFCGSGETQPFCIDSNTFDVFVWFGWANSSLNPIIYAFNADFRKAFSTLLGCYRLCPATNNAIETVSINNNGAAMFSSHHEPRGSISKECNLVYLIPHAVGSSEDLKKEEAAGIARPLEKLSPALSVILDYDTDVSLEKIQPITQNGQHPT

Structure (SMILES)	EC50 (D(1A) dopamine receptor [1]; read-out: EC50)	EC50 (D(1A) dopamine receptor [2]; read-out: EC50)	EC50 (D(1A) dopamine receptor [2]; read-out: pEC50 (converted))	EC50 (D(2) dopamine receptor [3]; read-out: EC50)	EC50 (D(2) dopamine receptor [3]; read-out: pEC50 (converted))	EC50 (D(2) dopamine receptor [4])	EC50 (D(1A) dopamine receptor [1]; read-out: pEC50 (converted))	G-protein bias factor (D(1A) dopamine receptor [5])	log(Tau/KA) (D(2) dopamine receptor [6])
CCc1cc2c(c(OC(C)=O)c1OC(C)=O)-c1cccc3c1[C@@H](C2)N(C)CC3	0.38 nM	1550 nM							
COc1cccc(-c2cc3c(c(OC(C)=O)c2OC(C)=O)-c2cccc4c2[C@@H](C3)N(C)CC4)c1	41.4 nM	669 nM	661 nM	> 10000 nM	> 10000 nM				
CC(=O)Oc1c(Cl)cc2c(c1OC(C)=O)-c1cccc3c1[C@@H](C2)N(C)CC3				> 10000 nM	> 10000 nM	604 nM			
CC(=O)Oc1c(C(C)C)cc2c(c1OC(C)=O)-c1cccc3c1[C@@H](C2)N(C)CC3	> 10000 nM	951 nM		> 10000 nM	> 10000 nM	> 10000 nM	> 10000 nM		
CN1CCc2cccc3c2[C@H]1Cc1ccc2c(c1-3)OCO2	> 10000 nM	112 nM		> 10000 nM	> 10000 nM	102 nM	> 10000 nM		
CCCN1CCc2cccc3c2[C@H]1Cc1ccc(O)c(O)c1-3								19.3	0.85
CN1CCc2cccc3c2[C@H]1Cc1ccc(O)c(O)c1-3								41.5	2.16
COCOc1ccc2c(c1OCOC)-c1cccc3c1[C@@H](C2)N(C)CC3	8.45 nM	> 10000 nM							
CC(=O)Oc1c(Br)cc2c(c1OC(C)=O)-c1cccc3c1[C@@H](C2)N(C)CC3				> 10000 nM	> 10000 nM	1410 nM			

— ChEMBL document CHEMBL4342494 (ACS Med Chem Lett, 2020)
